Source: PMC4424558, “Antimicrobial and antioxidant flavonoids from the leaves of Oncoba spinosa Forssk. (Salicaceae)” (BMC Complementary and Alternative Medicine, 2015)
Converted amounts (≈) assume the structure as drawn.

How the values were obtained:
[1] = system: Enterobacter aerogenes ATCC13048; assay: Broth microdilution MIC/MBC against Enterobacter aerogenes ATCC13048; assay type: cell-based; settings: for MBC / MIC: Klebsiella aerogenes; for MIC: 37°C, 24 h
Procedure: (§1) The studied microorganisms were both reference (from the American Type Culture Collection) and clinical (from Pasteur Institute Paris, France) strains of Enterobacter aerogenes, Escherichia coli, Klebsiella pneumoniae, Candida albicans, and Cryptococcus neoformans. Also, included were two clinical isolates of Candida parapsilosis and Staphylococcus aureus collected from Pasteur Centre (Yaoundé-Cameroon). The bacterial and fungal species were grown at 37°C and maintained on nutrient agar (NA, Conda, Madrid, Spain) and Sabouraud Dextrose Agar (SDA, Conda) slants respectively.
(§2) The inocula of yeasts and bacteria were prepared from overnight cultures by picking numerous colonies and suspending them in sterile saline (NaCl) solution (0.90%). Absorbance was read at 530 nm for yeasts or at 600 nm for bacteria and adjusted with the saline solution to match that of a 0.50 McFarland standard solution. From the prepared microbial solutions, other dilutions with saline solution were prepared to give a final concentration of 10^6 yeast cells/ml and 10^6 CFU/ml for bacteria.
(§3) The antimicrobial activity was investigated by determining the minimum inhibitory concentrations (MICs), minimum bactericidal concentrations (MBCs) and minimum fungicidal concentrations (MFCs).
(§4) MICs were determined by broth micro dilution. Stock solutions of the tested samples were prepared in 10% v/v aqueous dimethylsulfoxide (DMSO) solution (Fisher chemicals, Strasbourg, France) at concentration of 4096 μg/ml. This was two-fold serially diluted in Mueller-Hinton Broth (MHB) for bacteria and Sabouraud Dextrose Broth (SDB) for fungi to obtain a concentration range of 2048 to 0.25 μg/ml. For every experiment, a sterility check (10% aqueous DMSO and medium), negative control (10% aqueous DMSO, medium and inoculum) and positive control (10% aqueous DMSO, medium, inoculum and water-soluble antibiotics) were included. One hundred microliters of each concentration was introduced into a well (96-wells microplate) containing 90 μl of SDB or MHB and 10 μl of inoculum was added to obtain a final concentration range of 4096 to 0.125 μg/ml. The plates were covered with a sterile lid, and incubated on the shaker at 37°C for 24 h (bacteria) and 48 h (yeasts). MICs were assessed visually after the corresponding incubation period and were taken as the lowest sample concentration at which there was no growth or virtually no growth. The assay was repeated thrice.
(§5) The lowest concentration that yielded no growth after the sub-culturing was taken as the MBCs or MFCs. Chloramphenicol (Sigma-Aldrich, Steinheim, Germany) for bacteria and nystatin (Sigma-Aldrich, Steinheim, Germany) for yeasts were used as positive controls.

[2] = system: Escherichia coli ATCC8739; assay: Broth microdilution MIC/MBC against Escherichia coli ATCC8739; assay type: cell-based; settings: for MIC: 37°C, 24 h
Procedure: as §1, §2, §3, §4, §5

[3] = system: Klebsiella pneumoniae ATCC11296; assay: Broth microdilution MIC/MBC against Klebsiella pneumoniae ATCC11296; assay type: cell-based; settings: for MIC: 37°C, 24 h
Procedure: as §1, §2, §3, §4, §5

Staphylococcus aureus = assay: Broth microdilution MIC/MBC against Staphylococcus aureus; assay type: cell-based; settings: Staphylococcus aureus clinical isolate; for MIC: 37°C, 24 h
Procedure: as §1, §2, §3, §4, §5

Candida parapsilosis = assay: Broth microdilution MIC/MFC against Candida parapsilosis; assay type: cell-based; settings: Candida parapsilosis clinical isolate; for MIC / MFC: Lodderomyces parapsilosis; for MIC: 37°C, 48 h, read-out: MIC; for MFC: read-out: MFC
Procedure: as §1, §2, §3, §4, §5

[4] = system: Candida albicans ATCC 9002; assay: Broth microdilution MIC/MFC against Candida albicans ATCC 9002; assay type: cell-based; settings: for MIC: ATCC9002, 37°C, 48 h, read-out: MIC; for MFC: ATCC9002, read-out: MFC
Procedure: as §1, §2, §3, §4, §5

[5] = system: Cryptococcus neoformans IP 90526; assay: Broth microdilution MIC/MFC against Cryptococcus neoformans IP 90526; assay type: cell-based; settings: for MIC: IP90526, 37°C, 48 h, read-out: MIC; for MFC: IP90526, read-out: MFC
Procedure: as §1, §2, §3, §4, §5

fungi = assay: Broth microdilution, fungal strains (panel summary); assay type: cell-based; settings: range over the fungal strains
Procedure: as §1, §2, §3
as §4, with “One hundred microliters of each concentration was introduced into a well (96-wells microplate) containing 90 μl of SDB or MHB and 10 μl of inoculum was added to obtain a final concentration range of 4096 to 0.125 μg/ml. The plates were covered with a sterile lid, and incubated on the shaker at 37°C for 24 h (bacteria) and 48 h (yeasts).” left out, “The assay was repeated thrice.” left out

[6] = system: bacterial and fungal species; assay: Broth microdilution, all studied microorganisms (panel summary); assay type: cell-based; settings: for studied microorganisms on which inhibitory effects were noted: out of 7 studied microorganisms
Procedure: as §1, §2, §3, §4, §5

[7] = DPPH free radical scavenging assay; assay type: biochemical; settings: 30 min, room temperature, 517 nm
Procedure: The free radical scavenging activity of the MeOH extract as well as some of its isolated compounds was evaluated according to described methods with slight modifications. Briefly, the test samples, prior dissolved in DMSO (SIGMA) beforehand, were mixed with a 20 mg/l 2,2-diphenyl-1-picryl-hydrazyl (DPPH) methanol solution, to give final concentrations of 10, 50, 100, 500 and 1000 μg/ml. After 30 min at room temperature, the absorbance values were measured at 517 nm and converted into percentage of antioxidant activity. L-ascorbic acid was used as a standard control. The percentage of decolouration of DPPH (%) was calculated as follows: %decolourationofDPPH=Absorbanceofcontrol−Absorbanceoftestsample)×100/Absorbanceofcontrol
The percentage of decolouration of DPPH (%) was plotted against the test sample. Also, the percentage of decolouration of DPPH was converted in probits. The probit values were plotted against the logarithmic values of concentrations of the test samples and a linear regression curve was established in order to calculate the EC50 (μg/ml), which is the amount of sample necessary to decrease by 50% the absorbance of DPPH [11]. All the analyses were carried out in triplicate.

[8] = Trolox equivalent antioxidant capacity (TEAC) assay; assay type: biochemical; settings: ABTS/laccase, 420 nm, 230 s; 20 μg/ml isolated compounds, 10-400 μg/ml MeOH extract; gallic acid equivalents
Procedure: The TEAC test was done as previously described with slight modifications. In a quartz cuvette, to 950 μl acetate buffer (pH = 5.0, 100 mM), the following were added: 20 μl laccase (1 mM stock solution), 20 μl test sample, 10 μl ABTS (2,2′-azinobis(3-ethylbenzothiazoline-6-sulfonic acid)) (74 mM stock solution). The laccase were purified from Sclerotinia sclerotiorum according to the protocol described. The sample concentrations in the assay mixture were 400, 200, 100, 10 μg/ml for the MeOH extract and 20 μg/ml for the isolated compounds. The content of the generated ABTS^●+ radical was measured at 420 nm after 230 s reaction time and was converted to gallic acid equivalents by the use of a calibration curve (Pearson’s correlation coefficient: r = 0.998) constructed with 0, 4, 10, 14, 28, 56, 84 μM gallic acid standards rather than Trolox. Experiments were done in triplicate.

MBC/MIC [1] | MIC [1] | MBC/MIC [2] | MIC [2] | MBC/MIC [3] | MIC [3] | MIC (Staphylococcus aureus) | MFC/MIC (Candida parapsilosis) | MIC (Candida parapsilosis) | MIC [4] | MFC/MIC [5] | MIC [5] | EC50, concentration scavenging 50% of DPPH radical [7] | SMILES | MBC [1] | MBC [2] | MBC [3] | MBC (Staphylococcus aureus) | MFC (Candida parapsilosis) | MFC [5] | studied microorganisms on which inhibitory effects were noted [6] | also measured
1 | 64 µg/mL (≈ 212 µM) | 2 | 128 µg/mL (≈ 424 µM) | 1 | 64 µg/mL (≈ 212 µM) | 256 µg/mL (≈ 847 µM) | 1 | 64 µg/mL (≈ 212 µM) | 128 µg/mL (≈ 424 µM) | 1 | 64 µg/mL (≈ 212 µM) | 5.08 µg/mL | O=c1c(O)c(-c2ccc(O)c(O)c2)oc2cc(O)cc(O)c12 [Compound 2, quercetin] | 64 µg/mL (≈ 212 µM) | 256 µg/mL (≈ 847 µM) | 64 µg/mL (≈ 212 µM) | > 256 µg/mL | 64 µg/mL (≈ 212 µM) | 64 µg/mL (≈ 212 µM) | 7/7 | MFC/MIC [4]: 1; MFC [4]: 128 µg/mL (≈ 424 µM); MIC (range over fungi) (fungi): 64 to 128 µg/mL; activity against all the microbial strains (in words) [6]: active against all the microbial strains; Gallic acid equivalent antioxidant capacity (TEAC) [8]: 89.86 µg/mL
1 | 128 µg/mL (≈ 287 µM) | – | > 256 µg/mL | 1 | 256 µg/mL (≈ 574 µM) | > 256 µg/mL | 2 | 64 µg/mL (≈ 143 µM) | > 256 µg/mL | 1 | 128 µg/mL (≈ 287 µM) | 29.16 µg/mL | O=C(O)[C@H]1O[C@@H](Oc2cc(O)c3c(=O)cc(-c4ccc(O)cc4)oc3c2)[C@H](O)[C@@H](O)[C@@H]1O [Compound 3, apigenin-7-O-β-D-glucuronopyranoside] | 128 µg/mL (≈ 287 µM) | – | 256 µg/mL (≈ 574 µM) | – | 128 µg/mL (≈ 287 µM) | 128 µg/mL (≈ 287 µM) | 4/7 | –
2 | 32 µg/mL (≈ 68.9 µM) | 1 | 128 µg/mL (≈ 276 µM) | 2 | 32 µg/mL (≈ 68.9 µM) | 128 µg/mL (≈ 276 µM) | 2 | 128 µg/mL (≈ 276 µM) | 256 µg/mL (≈ 551 µM) | 1 | 128 µg/mL (≈ 276 µM) | 13.44 µg/mL | O=c1c(O[C@@H]2O[C@H](CO)[C@H](O)[C@H](O)[C@H]2O)c(-c2ccc(O)c(O)c2)oc2cc(O)cc(O)c12 [Compound 4, quercetin 3-O-β-D-galactopyranoside] | 64 µg/mL (≈ 138 µM) | 128 µg/mL (≈ 276 µM) | 64 µg/mL (≈ 138 µM) | 128 µg/mL (≈ 276 µM) | 256 µg/mL (≈ 551 µM) | 128 µg/mL (≈ 276 µM) | 7/7 | MBC/MIC (Staphylococcus aureus): 1; MFC/MIC [4]: 1; MFC [4]: 256 µg/mL (≈ 551 µM); activity against all the microbial strains (in words) [6]: active against all the microbial strains; Gallic acid equivalent antioxidant capacity (TEAC) [8]: 72.95 µg/mL
